# Measurements reported in patent publication US9403808B2, “Pyrazine derivatives” (Hoffmann-La Roche Inc., priority 2011, dated 2016).
# pEC50: −log10 of the molar value.
# Legend:
# [1] = biological target: human CB2 receptors (Homo sapiens (Human), UniProt P34972); test: functional cAMP assay, CB2; type: cell-based; settings: functional cAMP assay, CHO cells expressing human CB2; read-out: human CB2 EC50
# Experimental: (§1) CHO cells expressing human CB1 or CB2 receptors are seeded 17-24 hours prior to the experiment 50.000 cells per well in a black 96 well plate with flat clear bottom (Corning Costar #3904) in DMEM (Invitrogen No. 31331), 1×HT supplement, with 10% fetal calf serum and incubated at 5% CO2 and 37° C. in a humidified incubator. The growth medium was exchanged with Krebs Ringer Bicarbonate buffer with 1 mM IBMX and incubated at 30° C. for 30 min. Compounds were added to a final assay volume of 100 μl and incubated for 30 min at 30° C. Using the cAMP-Nano-TRF detection kit the assay (Roche Diagnostics) was stopped by the addition of 50 μl lysis reagent (Tris, NaCl, 1.5% Triton X100, 2.5% NP40, 10% NaN3) and 50 μl detection solutions (20 μM mAb Alexa700-cAMP 1:1, and 48 μM Ruthenium-2-AHA-cAMP) and shaken for 2 h at room temperature. The time-resolved energy transfer is measured by a TRF reader (Evotec Technologies GmbH), equipped with a ND:YAG laser as excitation source. The plate is measured twice with the excitation at 355 nm and at the emission with a delay of 100 ns and a gate of 100 ns, total exposure time 10s at 730 (bandwidth 30 nm) or 645 nm (bandwidth 75 nm), respectively. The FRET signal is calculated as follows: FRET=T730-Alexa730-P(T645-B645) with P=Ru730-B730/Ru645-B645, where T730 is the test well measured at […], T645 is the test well measured at 645 nm, B730 and B645 are the buffer controls at 730 nm and 645 nm, respectively. cAMP content is determined from the function of a standard curve spanning from 10 μM to 0.13 nM cAMP.
# (§2) EC50 values were determined using Activity Base analysis (ID Business Solution, Limited). The EC50 values for a wide range of cannabinoid agonists generated from this assay were in agreement with the values published in the scientific literature.
# [2] = biological target: human CB1 receptors (Homo sapiens (Human), UniProt P21554); test: functional cAMP assay, CB1; type: cell-based; settings: functional cAMP assay, CHO cells expressing human CB1; read-out: human CB1 EC50
# Experimental: as §1, §2
# Sequence of human CB2 receptors (P34972 whole entry): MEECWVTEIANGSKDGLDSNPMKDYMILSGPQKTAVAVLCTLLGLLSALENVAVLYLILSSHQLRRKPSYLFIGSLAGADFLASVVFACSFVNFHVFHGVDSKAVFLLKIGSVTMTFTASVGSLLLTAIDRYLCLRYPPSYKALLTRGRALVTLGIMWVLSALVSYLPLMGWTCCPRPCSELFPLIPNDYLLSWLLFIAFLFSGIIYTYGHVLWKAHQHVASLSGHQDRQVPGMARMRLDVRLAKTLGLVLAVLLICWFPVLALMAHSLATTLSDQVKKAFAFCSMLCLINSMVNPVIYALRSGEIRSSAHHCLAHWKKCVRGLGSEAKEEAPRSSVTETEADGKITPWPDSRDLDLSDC
# Sequence of human CB1 receptors (P21554 whole entry): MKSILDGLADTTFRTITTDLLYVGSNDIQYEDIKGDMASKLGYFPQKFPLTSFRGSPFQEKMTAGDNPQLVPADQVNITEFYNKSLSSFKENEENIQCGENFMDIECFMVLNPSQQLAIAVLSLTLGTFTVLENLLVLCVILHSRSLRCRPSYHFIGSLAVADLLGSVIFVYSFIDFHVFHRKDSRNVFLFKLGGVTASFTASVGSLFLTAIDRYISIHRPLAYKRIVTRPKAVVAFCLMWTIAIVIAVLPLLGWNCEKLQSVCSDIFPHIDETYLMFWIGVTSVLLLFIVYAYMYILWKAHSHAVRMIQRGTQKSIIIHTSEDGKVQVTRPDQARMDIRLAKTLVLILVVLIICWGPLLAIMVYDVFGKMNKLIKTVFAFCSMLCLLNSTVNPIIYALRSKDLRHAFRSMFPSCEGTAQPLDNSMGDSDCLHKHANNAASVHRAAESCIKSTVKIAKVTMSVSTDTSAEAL
SMILES,pEC50 [1],pEC50 [2]
"CNC(=O)[C@@H](NC(=O)c1cnc(N2CC(F)(F)C2)c(OCC2CC2)n1)C(C)(C)C [Example 8, 6-Cyclopropylmethoxy-5-(3,3-difluoro-azetidin-1-yl)-pyrazine-2-carboxylic acid ((S)-2,2-dimethyl-1-methylcarbamoyl-propyl)-amide]",7.73,< 5.00
"Cc1nc(C2(NC(=O)c3cnc(N4CC(F)(F)C4)c(OCC4CC4)n3)CCC2)no1 [Example 9, 6-Cyclopropylmethoxy-5-(3,3-difluoro-azetidin-1-yl)-pyrazine-2-carboxylic acid [1-(5-methyl-[1,2,4]oxadiazol-3-yl)-cyclobutyl]-amide]",7.06,5.89
"CC(C)(CCO)NC(=O)c1cnc(C2CC2)c(OCC2CC2)n1 [Example 10, 5-Cyclopropyl-6-cyclopropylmethoxy-pyrazine-2-carboxylic acid (3-hydroxy-1,1-dimethyl-propyl)-amide]",6.59,< 5.00
"O=C(NC1(CO)CCC1)c1cnc(C2CC2)c(OCC2CC2)n1 [Example 11, 5-Cyclopropyl-6-cyclopropylmethoxy-pyrazine-2-carboxylic acid (1-hydroxymethyl-cyclobutyl)-amide]",6.91,5.48
"Cc1nc(C2(NC(=O)c3cnc(C4CC4)c(OCC4CC4)n3)CCC2)no1 [Example 12, 5-Cyclopropyl-6-cyclopropylmethoxy-pyrazine-2-carboxylic acid [1-(5-methyl-[1,2,4]oxadiazol-3-yl)-cyclobutyl]-amide]",7.07,< 5.00
"CCC(C)(CO)NC(=O)c1cnc(C2CC2)c(OCC2CC2)n1 (stereo not drawn) [Example 13, 5-Cyclopropyl-6-cyclopropylmethoxy-pyrazine-2-carboxylic acid (1-hydroxymethyl-1-methyl-propyl)-amide]",7.20,< 5.00
"CNC(=O)[C@@H](NC(=O)c1cnc(C2CC2)c(OCC2CC2)n1)C(C)(C)C [Example 14, 5-Cyclopropyl-6-cyclopropylmethoxy-pyrazine-2-carboxylic acid ((S)-2,2-dimethyl-1-methylcarbamoyl-propyl)-amide]",8.17,6.81
"NC(=O)[C@@H](NC(=O)c1cnc(C2CC2)c(OCC2CC2)n1)c1ccccc1 [Example 15, 5-Cyclopropyl-6-cyclopropylmethoxy-pyrazine-2-carboxylic acid ((S)-carbamoyl-phenyl-methyl)-amide]",6.85,< 5.00
"CC(C)(O)[C@H](CC1CC1)NC(=O)c1cnc(N2CC(F)(F)C2)c(OCC2CC2)n1 [Example 16, 6-Cyclopropylmethoxy-5-(3,3-difluoro-azetidin-1-yl)-pyrazine-2-carboxylic acid ((S)-1-cyclopropylmethyl-2-hydroxy-2-methyl-propyl)-amide]",7.43,< 5.00
"CC(C)(C)C(CO)NC(=O)c1cnc(C2CC2)c(OCC2CC2)n1 (stereo not drawn) [Example 19, 5-Cyclopropyl-6-cyclopropylmethoxy-pyrazine-2-carboxylic acid (1-hydroxymethyl-2,2-dimethyl-propyl)-amide]",7.27,< 5.00
"Cc1nc([C@H](CC2CC2)NC(=O)c2cnc(N3CC(F)(F)C3)c(OCC3CC3)n2)no1 [Example 20, 6-Cyclopropylmethoxy-5-(3,3-difluoro-azetidin-1-yl)-pyrazine-2-carboxylic acid [(S)-2-cyclopropyl-1-(5-methyl-[1,2,4]oxadiazol-3-yl)-ethyl]-amide]",7.55,< 5.00
"O=C(NC(CO)C1CC1)c1cnc(N2CC(F)(F)C2)c(OCC2CC2)n1 (stereo not drawn) [Example 21, 6-Cyclopropylmethoxy-5-(3,3-difluoro-azetidin-1-yl)-pyrazine-2-carboxylic acid (1-cyclopropyl-2-hydroxy-ethyl)-amide]",7.21,< 5.00
"NC(=O)[C@@H](NC(=O)c1cnc(N2CC(F)(F)C2)c(OCC2CC2)n1)c1ccccc1 [Example 22, 6-Cyclopropylmethoxy-5-(3,3-difluoro-azetidin-1-yl)-pyrazine-2-carboxylic acid ((S)-carbamoyl-phenyl-methyl)-amide]",7.03,< 5.00
"COC(=O)[C@@H](NC(=O)c1cnc(C2CC2)c(OCC2CC2)n1)C(C)(C)C [Example 23, (S)-2-[(5-Cyclopropyl-6-cyclopropylmethoxy-pyrazine-2-carbonyl)-amino]-3,3-dimethyl-butyric acid methyl ester]",8.77,6.80
"CNC(=O)[C@H](CC1CC1)NC(=O)c1cnc(C2CC2)c(OCC2CC2)n1 [Example 24, 5-Cyclopropyl-6-cyclopropylmethoxy-pyrazine-2-carboxylic acid ((S)-2-cyclopropyl-1-methylcarbamoyl-ethyl)-amide]",6.70,< 5.00
"CN(C)C(=O)[C@H](CC1CC1)NC(=O)c1cnc(C2CC2)c(OCC2CC2)n1 [Example 25, 5-Cyclopropyl-6-cyclopropylmethoxy-pyrazine-2-carboxylic acid ((S)-2-cyclopropyl-1-dimethylcarbamoyl-ethyl)-amide]",7.84,< 5.00
"CNC(=O)[C@H](CC(C)C)NC(=O)c1cnc(C2CC2)c(OCC2CC2)n1 [Example 26, 5-Cyclopropyl-6-cyclopropylmethoxy-pyrazine-2-carboxylic acid ((S)-3-methyl-1-methylcarbamoyl-butyl)-amide]",7.87,< 5.00
"CC(C)C[C@H](NC(=O)c1cnc(C2CC2)c(OCC2CC2)n1)C(=O)N(C)C [Example 27, 5-Cyclopropyl-6-cyclopropylmethoxy-pyrazine-2-carboxylic acid ((S)-1-dimethylcarbamoyl-3-methyl-butyl)-amide]",8.57,< 5.00
"NC(=O)[C@H](CC1CC1)NC(=O)c1cnc(C2CC2)c(OCC2CC2)n1 [Example 28, 5-Cyclopropyl-6-cyclopropylmethoxy-pyrazine-2-carboxylic acid ((S)-1-carbamoyl-2-cyclopropyl-ethyl)-amide]",7.36,< 5.00
"CC(C)C[C@H](NC(=O)c1cnc(C2CC2)c(OCC2CC2)n1)C(N)=O [Example 29, 5-Cyclopropyl-6-cyclopropylmethoxy-pyrazine-2-carboxylic acid ((S)-1-carbamoyl-3-methyl-butyl)-amide]",8.39,5.80
"CCC(CC)(NC(=O)c1cnc(C2CC2)c(OCC2CC2)n1)C(=O)OC [Example 30, 2-[(5-Cyclopropyl-6-cyclopropylmethoxy-pyrazine-2-carbonyl)-amino]-2-ethyl-butyric acid methyl ester]",8.85,6.59
"CNC(=O)[C@H](CC1CC1)NC(=O)c1cnc(N2CC(F)(F)C2)c(OCC2CC2)n1 [Example 31, 6-Cyclopropylmethoxy-5-(3,3-difluoro-azetidin-1-yl)-pyrazine-2-carboxylic acid ((S)-2-cyclopropyl-1-methylcarbamoyl-ethyl)-amide]",6.91,< 5.00
"CN(C)C(=O)[C@H](CC1CC1)NC(=O)c1cnc(N2CC(F)(F)C2)c(OCC2CC2)n1 [Example 32, 6-Cyclopropylmethoxy-5-(3,3-difluoro-azetidin-1-yl)-pyrazine-2-carboxylic acid ((S)-2-cyclopropyl-1-dimethylcarbamoyl-ethyl)-amide]",7.22,< 5.00
"CNC(=O)[C@H](CC(C)C)NC(=O)c1cnc(N2CC(F)(F)C2)c(OCC2CC2)n1 [Example 33, 6-Cyclopropylmethoxy-5-(3,3-difluoro-azetidin-1-yl)-pyrazine-2-carboxylic acid ((S)-3-methyl-1-methylcarbamoyl-butyl)-amide]",7.93,< 5.00
"CC(C)C[C@H](NC(=O)c1cnc(N2CC(F)(F)C2)c(OCC2CC2)n1)C(=O)N(C)C [Example 34, 6-Cyclopropylmethoxy-5-(3,3-difluoro-azetidin-1-yl)-pyrazine-2-carboxylic acid ((S)-1-dimethylcarbamoyl-3-methyl-butyl)-amide]",7.87,< 5.00
"COC(=O)[C@H](CC1CC1)NC(=O)c1cnc(C2CC2)c(OCC2CC2)n1 [Example 35, (S)-3-Cyclopropyl-2-[(5-cyclopropyl-6-cyclopropylmethoxy-pyrazine-2-carbonyl)-amino]-propionic acid methyl ester]",7.36,< 5.00
"COC(=O)[C@H](CC1CC1)NC(=O)c1cnc(N2CC(F)(F)C2)c(OCC2CC2)n1 [Example 36, (S)-3-Cyclopropyl-2-{[6-cyclopropylmethoxy-5-(3,3-difluoro-azetidin-1-yl)-pyrazine-2-carbonyl]-amino}-propionic acid methyl ester]",8.02,< 5.00
